# Data reported in patent publication US8609342B2, “Reporter gene assay method” (Otsuka Pharmaceutical Co., Ltd., priority 2001, dated 2013).
# Key:
# [1] = target: T1, androgen receptor (Homo sapiens, UniProt P10275); assay: Reporter gene assay for androgen receptor antagonist detection (luciferase activity); format: cell-based; details: for antagonistic activity against the androgen receptor (judgment): judged from luciferase activity with EGFP activity as indication of cytotoxicity
# T1 construct: expressed in transfected cells; host or cells: CHO-K1 cells, transiently transfected with pZeoSV2-AR, pIND ARE-B10 and pcDNA-EGFP
# T1 sequence (P10275 1-920): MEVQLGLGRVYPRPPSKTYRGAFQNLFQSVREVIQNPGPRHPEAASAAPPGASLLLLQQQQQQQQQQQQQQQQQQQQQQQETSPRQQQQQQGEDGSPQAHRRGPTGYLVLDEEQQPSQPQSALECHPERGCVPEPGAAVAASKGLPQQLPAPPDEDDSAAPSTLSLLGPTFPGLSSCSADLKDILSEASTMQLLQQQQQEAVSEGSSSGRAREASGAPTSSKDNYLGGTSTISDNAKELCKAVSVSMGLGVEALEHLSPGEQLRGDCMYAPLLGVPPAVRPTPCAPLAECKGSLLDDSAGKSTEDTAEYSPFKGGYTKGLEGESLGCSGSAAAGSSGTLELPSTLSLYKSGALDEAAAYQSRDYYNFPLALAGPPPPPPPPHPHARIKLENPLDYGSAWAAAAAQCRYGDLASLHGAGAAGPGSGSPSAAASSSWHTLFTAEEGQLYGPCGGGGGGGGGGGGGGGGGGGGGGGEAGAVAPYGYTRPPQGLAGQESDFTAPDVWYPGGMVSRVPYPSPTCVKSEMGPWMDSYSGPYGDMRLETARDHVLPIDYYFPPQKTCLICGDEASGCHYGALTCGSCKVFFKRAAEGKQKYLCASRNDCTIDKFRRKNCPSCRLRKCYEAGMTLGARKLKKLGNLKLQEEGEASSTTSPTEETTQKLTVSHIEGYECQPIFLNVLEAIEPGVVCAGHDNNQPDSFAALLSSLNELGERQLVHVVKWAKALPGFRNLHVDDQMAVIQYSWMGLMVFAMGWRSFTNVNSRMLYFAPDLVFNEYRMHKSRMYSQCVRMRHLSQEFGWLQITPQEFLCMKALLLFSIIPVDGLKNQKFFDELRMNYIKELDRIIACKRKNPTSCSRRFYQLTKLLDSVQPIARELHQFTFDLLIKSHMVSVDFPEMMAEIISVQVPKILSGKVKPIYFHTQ
# Description: (§1) First, each test substance is dissolved in DMSO to a concentration of 10^−3 M, and the solution was 10-fold diluted stepwise (serial dilution) to give diluted test sample solutions having a test substance concentration of 10^−3 M to 10^−9 M. Then, each diluted sample solution was 100-fold diluted using a solution prepared by adding 5×10^−9 M) of 5α-dehydrotestosterone to DEMEM/F-12 medium (Gibco) (the test substance concentration becoming 10^−5 M to 10^−11 M).
# (§2) CHO-K1 cells were developed on a 96-well plate to a size of about 8000 cells/84 μL of medium per well.
# (§3) Separately, a solution for transfection was prepared by diluting 1 ng of pZeoSV-2-AR (prepared above in (1)), 50 ng of pIND ARE-B10 (prepared above in (2)) and 4 ng of pcDNA-EGFP (prepared above in (3)) with 6.25 μL of DMEM/F-12 medium and adding 0.15 μL of FuGENE6™ (Roche) to the dilution.
# (§4) On the day after the above development, 6 μL/well of the solution for transfection was added to each well for transfection of the cells in each well (the cell culture fluid volume in each well being about 90 μL). Three hours later, each of serial 10-fold dilutions of each test sample (generally 10^−5 M to 10^−11 M) as prepared using the above-prepared medium (DMEM/F-12) supplemented with 5×10^−9 M of 5a-dehydrotestosterone was added in 10 μL portions, and cultivation was continued at room temperature (the final test substance concentrations: 10^−6 M to 10^−12 M).
# (§5) In FIGS. 5 and 6, the ordinate denotes the cell survival rate (%) (the relative EGFP fluorescence intensity value at each test substance concentration as determined by taking the EGFP fluorescence intensity value measured without addition of the test substance as 100; shown by curve (1)) as well as the luciferase activity percentage (shown by curve (2)). The abscissa denotes the test substance concentration (M).
# [2] = tested on: CHO-K1 cells; format: cell-based, hamster
# Description: as §1, §2, §3, §4
# At 24 hours after addition of the serial dilutions of the test sample, the GFP fluorescence intensity in each well was measured at the excitation wavelength of 485 nm and fluorescence wavelength of 535 nm using Berthord's ARVO.
# as §5
# [3] = tested on: CHO-K1 cells; format: cell-based; details: Chinese hamster, 24 h
# Description: CHO-K1 cells (cells deposited with ATCC) were developed on a 96-well plate (8000 cells/well). On the next day, transfection was carried in each well with 50 ng/well of pGL3-Control (retaining the SV40 promoter and containing the luciferase gene; Promega) and 4 ng/well of pcDNA-EGFP using 0.15 μL of FuGENE6™ (Roche) (at room temperature).
# To each well of the cells of the invention as prepared as described above under (4), 3 hours after transfection, DMSO was added to a final concentration of 0.125, 0.25, 1, 2, 4 or 10%.
# After 24 hours following the addition of DMSO, the fluorescence intensity of EGFP expressed in each well was measured using Berthord's measuring apparatus ARVO. Immediately thereafter, the luciferase activity was measured using Steady-Glo™ (Promega) as a substrate and using Berthord's measuring apparatus ARVO.
# (§6) In FIG. 4, the ordinate denotes the relative survival rate (%) (the relative measurement result value at each DMSO concentration with the measurement result in each test carried out without addition of DMSO being taken as 100), and the abscissa denotes the DMSO concentration (%).
# [4] = tested on: CHO-K1 cells; assay: MTT assay of CHO-K1 cells with pGL3-Control alone, in the presence of DMSO (comparison); format: cell-based, hamster; details: 24 hours of culture with DMSO; relative to no DMSO = 100
# Description: For comparison, the following MTT assay and AlamarBlue assay were carried out using the respective assay kits. Thus, CHO-K1 cells with pGL3-Control alone introduced therein were used in lieu of the above-prepared cells, DMSO was added to each well to the same concentration as mentioned above and, after 24 hours of culture, the MTT assay was carried out. The MTT measurement was performed as indicated in the manual attached to the product.
# as §6
SMILES,antagonistic activity against the androgen receptor (judgment) [1],cytotoxic effect [2],also measured
"CC1(C)CNC(=NN=C(/C=C/c2ccc(C(F)(F)F)cc2)/C=C/c2ccc(C(F)(F)F)cc2)NC1 [hydramethylnone, Hydramethylnone]",no antagonistic activity,–,"luciferase activity ([1]; with 5×10^−9 M 5α-dehydrotestosterone, 24 hours after addition of test substance): decreases in luciferase activity were due to cytotoxicity"
"O=[N+]([O-])c1ccc(Oc2c(Cl)cc(Cl)cc2Cl)cc1 [CNP, chloronirophen]",has an antagonistic activity against the androgen receptor,any cytotoxic effect will not manifest itself,–
"C[S+](C)[O-] [DMSO, dimethyl sulfoxide]",–,–,DMSO concentration from which decreases in luciferase activity are observed [3]: about 0.25%; DMSO concentration at which a decrease in MTT activity is first observed [4]: ≥ 4%
"CC(=O)O[C@]1(C(C)=O)CC[C@H]2[C@@H]3C=C(Cl)C4=CC(=O)[C@@H]5C[C@@H]5[C@]4(C)[C@H]3CC[C@@]21C [cyproterone acetate, Cyproterone acetate]",–,no cytotoxic effect was observed,"EGFP activity (cell survival rate) ([2]; Chinese hamster, 24 h): ~100%"
